A short description of series [1]: Pharmacokinetic interactions between HEJG and lopinavir in rats. The note with it: lopinavir in rat plasma; for AUC(0-inf) / Cmax: male, Sprague-Dawley, rat, plasma, po, 160 mg/kg.
Series [2] concerns the target T1, CYP3A (Homo sapiens, UniProt P08684). The following applies: for inhibitory effects against CYP3A: microsomes.
The target of series [3] is T1, CYP3A. Put plainly: in vitro. The note with it: microsomes.
For series [4], the system named is CYP3A. Briefly: in vitro. The note with it: human, human liver microsomes, pH 7.4, probe testosterone (6β-hydroxylation). Background: Microsomes from liver hold many membrane-bound enzymes, among them those of drug oxidation.
Setting [5] is: HEJG (3 g/kg, i.g.) + lopinavir (160 mg/kg, i.g.).
The mark [6] stands for this setting: Water + lopinavir (160 mg/kg, i.g.), control group.
Setting [7] is: pH 7.4, Time-dependent inhibition IC50 Preincubation for 3 min.
The mark [8] stands for this setting: pH 7.4, Time-dependent inhibition IC50 Preincubation for 33 min.

The structures appear in SMILES notation.

As usually defined, the AUC(0-inf) is total exposure, with the tail of the curve extrapolated. What is called Cmax is the maximum level reached in the sampled fluid or tissue. What is called IC50 is the concentration that gives 50% inhibition.

T1 sequence (P08684 2-503): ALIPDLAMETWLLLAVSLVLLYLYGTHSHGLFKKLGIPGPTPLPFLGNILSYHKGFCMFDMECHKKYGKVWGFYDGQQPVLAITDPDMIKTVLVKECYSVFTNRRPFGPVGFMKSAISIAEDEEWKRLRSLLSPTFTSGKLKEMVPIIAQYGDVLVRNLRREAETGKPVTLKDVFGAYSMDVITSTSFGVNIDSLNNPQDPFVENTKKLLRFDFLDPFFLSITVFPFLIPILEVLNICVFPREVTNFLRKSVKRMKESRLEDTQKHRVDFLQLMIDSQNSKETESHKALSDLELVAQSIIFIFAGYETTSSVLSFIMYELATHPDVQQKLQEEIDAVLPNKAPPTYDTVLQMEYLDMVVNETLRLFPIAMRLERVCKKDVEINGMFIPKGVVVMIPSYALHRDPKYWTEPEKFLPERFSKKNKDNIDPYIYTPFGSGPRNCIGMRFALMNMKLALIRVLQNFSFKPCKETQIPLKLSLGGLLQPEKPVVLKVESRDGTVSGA

For `Cc1cccc(C)c1OCC(=O)N[C@@H](Cc1ccccc1)[C@@H](O)C[C@H](Cc1ccccc1)NC(=O)[C@H](C(C)C)N1CCCNC1=O` [lopinavir], in series [1] (setting [5]), the t1/2 was found to be 2.68 ± 0.45 h, the total exposure AUC(0-inf) amounted to 10200 ± 1570 ng·h/mL and the maximum concentration (Cmax) was 1860 ± 215 ng/mL. Also, in series [1] (setting [6]), the area under the curve AUC(0-inf) is 4190 ± 131 ng·h/mL and the Cmax stood at 1280 ± 55 ng/mL.

For `O=C(/C=C/c1ccc(O)c(O)c1)O[C@@H]1C[C@](O)(C(=O)O)C[C@@H](O)[C@H]1O` [Chlorogenic acid], in series [2], the “inhibitory effects against CYP3A” value is listed as “weak inhibitory effects”. The IC50 in series [3] (setting [7]) and in series [3] (setting [8]) was greater than 100 µM each time.

For the molecule `O=c1c(O)c(-c2ccc(O)c(O)c2)oc2cc(O)cc(O)c12` [Quercetin], in series [4], half-maximal inhibition (IC50) required 3.95 ± 0.31 µM.

Consider `O=C(O)/C=C/c1ccc(O)c(O)c1` [Caffeic acid], for which, in series [2], the “inhibitory effects against CYP3A” value was “weak inhibitory effects”. Further, the concentration for half-maximal inhibition (IC50) in series [3] (setting [7]) and in series [3] (setting [8]) was greater than 100 µM each time.

`O=c1c(O)c(-c2ccc(O)cc2)oc2cc(O)cc(O)c12` [Kaempferol]: the IC50 shift in series [3] (pH 7.4) amounted to 2.01. The 50% inhibitory concentration (IC50) in series [3] (setting [7]) worked out at 13.1 ± 1.29 µM; in series [3] (setting [8]) it was 6.53 ± 0.31 µM.

For the molecule `COc1cc(O)ccc1/C=C/C(=O)c1ccc(O)cc1` [Echinatin], in series [2] (constituents, IC50 3 min / 33 min preincubation), the Ratio stood at 3.20. The concentration for half-maximal inhibition (IC50) in series [4] (Time-dependent inhibition IC50 Preincubation for 3 min, constituents, HLMs, 3 min preincubation) is 25.9 ± 3.19 µM; in series [4] (Time-dependent inhibition IC50 Preincubation for 33 min, constituents, HLMs, 33 min preincubation), 8.08 ± 0.56 µM.

These data come from PMC8237038 (Acta Pharmacologica Sinica, 2021).
